Literature values in patent US20200181654A1, “AGLYCONE PRODUCTION PROMOTER” (priority 2016, published 2020).

Settings: after oral ingestion

SMILES | maximum values of the plasma concentrations of the aglycones, relative to ingestion of the glycosides (daidzin, genistin)
O=c1c(-c2ccc(O)cc2)coc2cc(O)ccc12 [daidzein] | five times or greater
O=c1c(-c2ccc(O)cc2)coc2cc(O)cc(O)c12 [genistein] | five times or greater
